Among the test systems are LXFL 529; DLD-1; M19-MEL; DMS-114; DMS-273; XF498; HOP-18; RXF 631; KM-20L2.
What all share (experiment): inhibition of tumour cell growth, NCI panel, 48 h

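The compound was tested at five concentrations on cells cultured in 96-well plates, with a 48-hour exposure period. The concentration for 50% growth inhibition is given as GI50.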 Activity calls are given as the source filed them. No stated cut-off is given here; in the data, active = GI50 up to about 1.1 µM and inactive = higher.

The values below come from ChEMBL document CHEMBL1201862, “PubChem BioAssay data set” (2004).

`CCOC(C/N=c1/nc(N(C)C)ss1)OCC`: the GI50 in the test on LXFL 529 is 0.489 µM (active); in the test on DLD-1, 16.4 µM (inactive); in the test with M19-MEL, 0.504 µM (active); in the test with DMS-114, 18 µM (inactive); in the test with DMS-273, 23 µM (inactive); in the test on XF498, 15 µM (inactive). Further, the GI50 with HOP-18 is > 66.4 µM (inactive); with RXF 631, 18.4 µM (inactive); with KM-20L2, 27.7 µM (inactive).

With `COc1c(O)ccc(/C=N/NC(=S)NCOCCOC(C)=O)c1OC`, the GI50 in the test on LXFL 529, with DLD-1, in the test with M19-MEL, with DMS-114, with DMS-273 and in the test on XF498 was > 100 µM (inactive) throughout. Also, the GI50 in the test on HOP-18, in the test with RXF 631 and in the test on KM-20L2 was > 100 µM (inactive) each time.

Consider `COc1ccc(/C=C2\CCC(C)(CN(C)C)C2=O)cc1` (centres undefined), for which the GI50 with LXFL 529 was > 100 µM (inactive); in the test with DLD-1 it was > 100 µM (inactive); with M19-MEL, > 100 µM (inactive); in the test with DMS-114 it was 76 µM (inactive); in the test on DMS-273, > 100 µM (inactive); with XF498, > 100 µM (inactive). Moreover, the GI50 with HOP-18 was > 100 µM (inactive); in the test on RXF 631, 40.4 µM (inactive); with KM-20L2, > 100 µM (inactive).

For `O=C(O)/C(Cl)=C(Cl)/C=N/NC(=O)c1cc2ccccc2cc1O`, the GI50 in the test on LXFL 529 was 21.6 µM (inactive); with DLD-1 it was 7.69 µM (inactive); in the test on M19-MEL it was 17.9 µM (inactive); in the test on DMS-114 it was 17.3 µM (inactive); with DMS-273, 6.84 µM (inactive); with XF498 it was 35.4 µM (inactive). In addition, the GI50 in the test with HOP-18 was 13.5 µM (inactive); in the test with RXF 631 it was 26.4 µM (inactive); in the test on KM-20L2, 28.8 µM (inactive).

`Cc1ccc(/C=C2\CCCC(C(NO)c3ccc(C)cc3)C2=NO)cc1` (centres undefined): the GI50 in the test with LXFL 529 was 61.7 µM (inactive); with DLD-1, 28 µM (inactive); in the test with M19-MEL, 69.5 µM (inactive); in the test on DMS-114, 30.3 µM (inactive); in the test with DMS-273 it was 42 µM (inactive); with XF498, 43.7 µM (inactive). For the same compound, the figures for the GI50 in the test on HOP-18, with RXF 631 and with KM-20L2 were 11.4 µM (inactive), 27.4 µM (inactive) and 21.7 µM (inactive), respectively.

`C=CCNC(=S)NNC(=O)c1c(C)nc2sccn12`: the GI50 with LXFL 529, with DLD-1, with M19-MEL, with DMS-114, in the test with DMS-273 and in the test on XF498 was > 100 µM (inactive) in each case. The GI50 in the test on HOP-18, in the test on RXF 631 and with KM-20L2 was > 100 µM (inactive) throughout.
